Literature values as cited in PMC3131558, “Plitidepsin Has a Safe Cardiac Profile: A Comprehensive Analysis” (Marine Drugs, 2011).

Conditions: possible class effect of HDACI inhibitors; cited from earlier work
From the text: Plitidepsin has neither shown cardiac toxicity during preclinical/toxicology studies nor has been reported in early phase I clinical trials.

| SMILES | Electrocardiogram (ECG) abnormalities |
| --- | --- |
| Cc1[nH]c2ccccc2c1CCNCc1ccc(/C=C/C(=O)NO)cc1 [LBH589] | reported |
| O=C(/C=C/c1ccc(CN(CCO)CCc2c[nH]c3ccccc23)cc1)NO [LAQ824] | reported |
